# Assay results from the supplement of paper PMC10307832.
# Columns and labels:
# Experiment in all cases: relative viability (nuclei count vs DMSO), 5 days (fraction); higher = more cells survive
# [1] = tested on: NCI-H1703
# Procedure, shortened: (§1)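 For relative viability, nuclei counts in treated wells were divided by those in vehicle wells. Lung cancer cell lines had been pin-tool dosed in 1536-well plates the day after seeding and cultured for 5 days, then fixed and stained in one step (final 0.05% Triton X-100, 1% formaldehyde, 1 ug/ml Hoechst) and imaged at 4×. Doses were one drug alone or a fixed anchor-drug dose plus five library-drug doses (not always all listed) in √10 steps, and values are duplicate-plate medians.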
# [2] = tested on: NCI-H1651
# Procedure, shortened: as §1
# [3] = tested on: Calu-6
# Procedure, shortened: as §1
# [4] = tested on: EBC-1
# Procedure, shortened: as §1
# [5] = tested on: NCI-H1299
# Procedure, shortened: as §1
# [6] = tested on: RERF-LC-KJ
# Procedure, shortened: as §1
# [7] = tested on: NCI-H838
# Procedure, shortened: as §1
# [8] = tested on: A549
# Procedure, shortened: as §1
# [9] = tested on: NCI-H520
# Procedure, shortened: as §1
# [10] = tested on: NCI-H1944
# Procedure, shortened: as §1
# [11] = tested on: NCI-H650
# Procedure, shortened: as §1
# [12] = tested on: IA-LM
# Procedure, shortened: as §1
compound,measurement,setting,value
COc1nc(C)cnc1NS(=O)(=O)c1cccnc1-c1ccc(-c2nnco2)cc1 [Zibotentan] + C[C@]1(O)C[C@@H](c2nc(-c3ccc4ccc(-c5ccccc5)nc4c3)c3c(N)nccn32)C1 [Linsitinib] (partner 1 µM),relative viability,[1]; first compound 0.08 µM,0.655
same,relative viability,[1]; first compound 0.253 µM,0.718
same,relative viability,[1]; first compound 0.8 µM,0.865
same,relative viability,[1]; first compound 2.53 µM,0.167
same,relative viability,[2]; first compound 0.08 µM,1.17
same,relative viability,[2]; first compound 0.253 µM,0.949
same,relative viability,[2]; first compound 0.8 µM,0.92
same,relative viability,[2]; first compound 2.53 µM,0.849
same,relative viability,[3]; first compound 0.08 µM,0.996
same,relative viability,[3]; first compound 0.253 µM,0.885
same,relative viability,[3]; first compound 0.8 µM,0.966
same,relative viability,[3]; first compound 2.53 µM,0.922
same,relative viability,[4]; first compound 0.08 µM,0.816
same,relative viability,[4]; first compound 0.253 µM,0.986
same,relative viability,[4]; first compound 0.8 µM,0.934
same,relative viability,[4]; first compound 2.53 µM,0.915
same,relative viability,[5]; first compound 0.08 µM,0.938
same,relative viability,[5]; first compound 0.253 µM,1.01
same,relative viability,[5]; first compound 0.8 µM,0.984
same,relative viability,[5]; first compound 2.53 µM,0.987
same,relative viability,[6]; first compound 0.08 µM,0.885
same,relative viability,[6]; first compound 0.253 µM,0.859
same,relative viability,[6]; first compound 0.8 µM,0.803
same,relative viability,[6]; first compound 2.53 µM,0.892
same,relative viability,[7]; first compound 0.08 µM,1.02
same,relative viability,[7]; first compound 0.253 µM,0.957
same,relative viability,[7]; first compound 0.8 µM,1
same,relative viability,[7]; first compound 2.53 µM,0.959
same,relative viability,[8]; first compound 0.08 µM,0.578
same,relative viability,[8]; first compound 0.253 µM,0.539
same,relative viability,[8]; first compound 0.8 µM,0.589
same,relative viability,[8]; first compound 2.53 µM,0.642
same,relative viability,[9]; first compound 0.08 µM,1.05
same,relative viability,[9]; first compound 0.253 µM,0.892
same,relative viability,[9]; first compound 0.8 µM,0.904
same,relative viability,[9]; first compound 2.53 µM,1.02
same,relative viability,[10]; first compound 0.08 µM,1.19
same,relative viability,[10]; first compound 0.253 µM,1.12
same,relative viability,[10]; first compound 0.8 µM,1.1
same,relative viability,[10]; first compound 2.53 µM,1.15
same,relative viability,[11]; first compound 0.08 µM,1
same,relative viability,[11]; first compound 0.253 µM,0.676
same,relative viability,[11]; first compound 0.8 µM,1.02
same,relative viability,[11]; first compound 2.53 µM,0.881
same,relative viability,[12]; first compound 0.08 µM,0.627
same,relative viability,[12]; first compound 0.253 µM,0.743
same,relative viability,[12]; first compound 0.8 µM,0.778
same,relative viability,[12]; first compound 2.53 µM,0.456
COc1nc(C)cnc1NS(=O)(=O)c1cccnc1-c1ccc(-c2nnco2)cc1 [Zibotentan] + Cc1nc(NC(=O)N2CCC[C@H]2C(N)=O)sc1-c1ccnc(C(C)(C)C(F)(F)F)c1 [Alpelisib] (partner 2 µM),relative viability,[1]; first compound 0.08 µM,0.363
same,relative viability,[1]; first compound 0.253 µM,0.386
same,relative viability,[1]; first compound 0.8 µM,0.464
same,relative viability,[1]; first compound 2.53 µM,0.237
same,relative viability,[2]; first compound 0.08 µM,0.882
same,relative viability,[2]; first compound 0.253 µM,0.88
same,relative viability,[2]; first compound 0.8 µM,0.88
same,relative viability,[2]; first compound 2.53 µM,1.04
same,relative viability,[3]; first compound 0.08 µM,1
same,relative viability,[3]; first compound 0.253 µM,0.986
same,relative viability,[3]; first compound 0.8 µM,0.98
same,relative viability,[3]; first compound 2.53 µM,1.1
same,relative viability,[4]; first compound 0.08 µM,0.826
same,relative viability,[4]; first compound 0.253 µM,0.855
same,relative viability,[4]; first compound 0.8 µM,0.944
same,relative viability,[4]; first compound 2.53 µM,0.857
same,relative viability,[5]; first compound 0.08 µM,1.06
same,relative viability,[5]; first compound 0.253 µM,1.05
same,relative viability,[5]; first compound 0.8 µM,1.06
same,relative viability,[5]; first compound 2.53 µM,1.07
same,relative viability,[6]; first compound 0.08 µM,0.865
same,relative viability,[6]; first compound 0.253 µM,0.898
same,relative viability,[6]; first compound 0.8 µM,0.826
same,relative viability,[6]; first compound 2.53 µM,0.83
same,relative viability,[7]; first compound 0.08 µM,0.957
same,relative viability,[7]; first compound 0.253 µM,1.01
same,relative viability,[7]; first compound 0.8 µM,0.956
same,relative viability,[7]; first compound 2.53 µM,1.05
same,relative viability,[8]; first compound 0.08 µM,0.852
same,relative viability,[8]; first compound 0.253 µM,0.578
same,relative viability,[8]; first compound 0.8 µM,0.704
same,relative viability,[8]; first compound 2.53 µM,0.88
same,relative viability,[9]; first compound 0.08 µM,0.928
same,relative viability,[9]; first compound 0.253 µM,0.848
same,relative viability,[9]; first compound 0.8 µM,0.768
same,relative viability,[9]; first compound 2.53 µM,0.972
same,relative viability,[10]; first compound 0.08 µM,0.915
same,relative viability,[10]; first compound 0.253 µM,0.808
same,relative viability,[10]; first compound 0.8 µM,0.756
same,relative viability,[10]; first compound 2.53 µM,0.888
same,relative viability,[11]; first compound 0.08 µM,1.13
same,relative viability,[11]; first compound 0.253 µM,1.06
same,relative viability,[11]; first compound 0.8 µM,1.03
same,relative viability,[11]; first compound 2.53 µM,1.16
same,relative viability,[12]; first compound 0.08 µM,0.799
same,relative viability,[12]; first compound 0.253 µM,0.725
same,relative viability,[12]; first compound 0.8 µM,0.646
same,relative viability,[12]; first compound 2.53 µM,0.812
